In patent US9822103B2, “Inhibitors of lysine methyl transferase” (priority 2013, dated 2017) one finds IC50 data, which are given here for 25 compounds.

pIC50: −log10 of the molar value. Bounds are passed on as bounds.

The target of this assay is recombinant EZH2-641F complex (EZH2 Y641F/EED/SUZ12/RbAp48/AEBP2) (Homo sapiens (Human), UniProt Q15910, Y641F). The assay is described as follows: EZH2 Histone Methyl Transferase Assay (scintillation proximity assay). The class given is biochemical. To be noted: 350 nM histone peptide substrate, 500 nM 3H-SAM, 3 hours room temperature. As for the experimental part:
EZH2 Histone Methyl Transferase Assay
The effectiveness of compounds of the present invention as inhibitors of histone methyl transferases can be readily tested by assays known to those skilled in the art. For example, in vitro histone methyl transferase assays may be conducted with a relevant purified histone methyl transferase and an appropriate synthetic substrate to determine the inhibitory activity of the compounds. Assays for inhibition of EZH2 by the instant compounds were performed in 384-well plates with reaction mixtures containing 350 nM of histone peptide substrate (ATKAAR-K(Me2)-SAPATGGVKKPHRYRPG-GK(Biotin), 500 nM S-[methyl-^3H]adenosyl-L-methionine (55-85 Ci/mmol), 50 mM Tris-HCl (pH 9.0), 50 mM NaCl, 1 mM dithiothreitol, Tween-20 at 0.01% and fatty-acid free bovine serum albumin at 0.01%, and recombinant EZH2-641F complex (EZH2 Y641F/EED/SUZ12/RbAp48/AEBP2) at 5 nM (>98% purity, BPS Bioscience) or 15 nM (50% purity, in-house). Reaction mixtures were incubated at room temperature for 3 hours, and the reactions were terminated by 0.005% poly-L-lysine solution in 20 mM Tris-HCl (pH 7.5) and 150 mM NaCl. Reaction products were captured by binding to strepavidin-conjugated imaging beads. Incorporation of radioactive methyl group into the histone peptide substrate was determined in Leadseeker (GE Healthcare) by means of scintillation proximity assay. Dose response curves were generated to determine the concentration required to inhibit 50% of methyl transferase activity (EC50). Compounds were dissolved at 10 mM in dimethylsulfoxide (DMSO) and evaluated at eleven concentrations. EC50 values were derived by non-linear regression analysis.
Background: In a scintillation proximity assay essentially only radioactivity close to the scintillant gives light.

recombinant EZH2-641F complex (EZH2 Y641F/EED/SUZ12/RbAp48/AEBP2), sequence (Q15910 whole entry Y641F): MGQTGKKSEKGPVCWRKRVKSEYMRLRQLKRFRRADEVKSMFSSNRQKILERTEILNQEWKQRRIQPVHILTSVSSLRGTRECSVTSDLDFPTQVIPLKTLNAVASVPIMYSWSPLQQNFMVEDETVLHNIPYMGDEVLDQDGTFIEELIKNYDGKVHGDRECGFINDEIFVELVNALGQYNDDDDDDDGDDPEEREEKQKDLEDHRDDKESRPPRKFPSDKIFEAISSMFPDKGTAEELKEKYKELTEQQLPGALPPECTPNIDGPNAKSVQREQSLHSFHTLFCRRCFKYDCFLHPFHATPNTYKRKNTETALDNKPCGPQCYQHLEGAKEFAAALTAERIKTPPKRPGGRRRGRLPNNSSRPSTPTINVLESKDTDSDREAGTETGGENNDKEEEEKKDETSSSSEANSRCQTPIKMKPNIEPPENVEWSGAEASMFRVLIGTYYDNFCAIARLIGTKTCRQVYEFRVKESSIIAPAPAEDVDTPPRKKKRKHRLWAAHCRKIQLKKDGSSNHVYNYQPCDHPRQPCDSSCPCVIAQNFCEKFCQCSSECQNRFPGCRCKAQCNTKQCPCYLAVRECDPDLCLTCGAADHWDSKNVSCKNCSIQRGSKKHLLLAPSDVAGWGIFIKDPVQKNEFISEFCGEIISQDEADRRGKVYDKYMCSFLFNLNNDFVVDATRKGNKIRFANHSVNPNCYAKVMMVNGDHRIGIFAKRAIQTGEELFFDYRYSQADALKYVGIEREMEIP
recombinant EZH2-641F complex (EZH2 Y641F/EED/SUZ12/RbAp48/AEBP2), sequence (O75530 whole entry partner): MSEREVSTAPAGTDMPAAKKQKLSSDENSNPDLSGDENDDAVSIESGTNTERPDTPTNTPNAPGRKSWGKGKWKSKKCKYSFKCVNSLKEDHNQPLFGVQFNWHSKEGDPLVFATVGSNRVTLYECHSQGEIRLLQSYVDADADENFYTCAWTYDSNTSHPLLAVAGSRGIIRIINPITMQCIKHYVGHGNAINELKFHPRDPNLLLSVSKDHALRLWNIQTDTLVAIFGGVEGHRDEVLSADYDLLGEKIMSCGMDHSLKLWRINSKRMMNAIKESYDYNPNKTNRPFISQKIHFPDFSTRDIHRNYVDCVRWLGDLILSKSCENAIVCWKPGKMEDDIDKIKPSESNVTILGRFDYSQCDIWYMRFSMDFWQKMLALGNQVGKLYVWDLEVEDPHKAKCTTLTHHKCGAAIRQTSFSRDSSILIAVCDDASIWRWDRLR
recombinant EZH2-641F complex (EZH2 Y641F/EED/SUZ12/RbAp48/AEBP2), sequence (Q15022 whole entry partner): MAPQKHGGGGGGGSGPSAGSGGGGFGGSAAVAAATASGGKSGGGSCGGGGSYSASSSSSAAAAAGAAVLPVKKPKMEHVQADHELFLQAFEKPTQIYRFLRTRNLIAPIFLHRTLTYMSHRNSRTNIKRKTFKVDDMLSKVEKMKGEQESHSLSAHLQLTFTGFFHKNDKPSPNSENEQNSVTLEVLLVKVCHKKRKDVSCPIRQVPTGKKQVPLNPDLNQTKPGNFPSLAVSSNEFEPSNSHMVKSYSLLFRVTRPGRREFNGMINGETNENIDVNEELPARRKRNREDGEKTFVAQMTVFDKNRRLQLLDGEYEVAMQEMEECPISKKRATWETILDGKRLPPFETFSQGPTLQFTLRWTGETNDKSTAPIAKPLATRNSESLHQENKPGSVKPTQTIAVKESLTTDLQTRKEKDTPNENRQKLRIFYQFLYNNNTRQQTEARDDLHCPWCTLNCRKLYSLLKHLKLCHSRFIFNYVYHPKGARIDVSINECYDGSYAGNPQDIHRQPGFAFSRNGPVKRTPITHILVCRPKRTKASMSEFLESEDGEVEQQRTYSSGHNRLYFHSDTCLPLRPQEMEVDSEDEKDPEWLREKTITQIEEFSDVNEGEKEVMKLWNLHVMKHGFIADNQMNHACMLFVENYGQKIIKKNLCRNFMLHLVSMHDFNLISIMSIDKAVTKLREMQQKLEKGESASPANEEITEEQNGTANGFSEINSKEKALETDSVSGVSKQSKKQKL
recombinant EZH2-641F complex (EZH2 Y641F/EED/SUZ12/RbAp48/AEBP2), sequence (Q09028 whole entry partner): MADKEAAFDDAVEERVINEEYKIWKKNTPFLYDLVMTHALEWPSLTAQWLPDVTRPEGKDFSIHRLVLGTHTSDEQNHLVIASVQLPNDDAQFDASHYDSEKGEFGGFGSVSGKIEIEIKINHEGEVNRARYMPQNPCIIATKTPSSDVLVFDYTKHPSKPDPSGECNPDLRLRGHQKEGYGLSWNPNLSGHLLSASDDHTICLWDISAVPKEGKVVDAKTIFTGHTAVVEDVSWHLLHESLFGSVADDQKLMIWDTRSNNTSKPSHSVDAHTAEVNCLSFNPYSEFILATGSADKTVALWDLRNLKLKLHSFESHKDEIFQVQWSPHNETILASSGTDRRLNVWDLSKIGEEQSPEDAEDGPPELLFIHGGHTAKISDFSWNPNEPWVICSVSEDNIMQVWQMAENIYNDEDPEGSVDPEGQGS
recombinant EZH2-641F complex (EZH2 Y641F/EED/SUZ12/RbAp48/AEBP2), sequence (Q6ZN18 whole entry partner): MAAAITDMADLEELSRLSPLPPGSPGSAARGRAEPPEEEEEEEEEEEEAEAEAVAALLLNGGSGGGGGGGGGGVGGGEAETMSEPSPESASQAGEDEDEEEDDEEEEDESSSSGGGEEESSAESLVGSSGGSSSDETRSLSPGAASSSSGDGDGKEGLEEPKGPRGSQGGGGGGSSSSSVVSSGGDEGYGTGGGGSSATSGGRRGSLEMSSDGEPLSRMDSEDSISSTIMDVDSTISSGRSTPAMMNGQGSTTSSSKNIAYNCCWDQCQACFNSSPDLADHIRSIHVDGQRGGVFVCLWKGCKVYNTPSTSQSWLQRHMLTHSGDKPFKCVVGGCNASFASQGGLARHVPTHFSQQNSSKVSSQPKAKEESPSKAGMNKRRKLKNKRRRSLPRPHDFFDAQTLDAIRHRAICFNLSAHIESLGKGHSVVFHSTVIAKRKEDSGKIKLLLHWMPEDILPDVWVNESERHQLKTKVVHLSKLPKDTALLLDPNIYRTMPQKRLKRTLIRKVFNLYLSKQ

As to `Cc1cc(C)c(CNC(=O)c2cc(Br)c3c(c2)CCCC(C)O3)c(=O)[nH]1` (stereo not shown) [Example 49, 9-Bromo-N-((4,6-dimethyl-2-oxo-1,2-dihydropyridin-3-yl)methyl)-2-methyl-2,3,4,5-tetrahydrobenzo[b]oxepine-7-carboxamide], the pIC50 (usually the negative decadic logarithm of the IC50, by convention in mol/L) was below 6.00.

`Cc1cc(C)c(CNC(=O)c2cc3c(c(-c4ccc(CN5CCOCC5)cc4)c2)OC(C)CCC3)c(=O)[nH]1` (stereo not shown) [Example 50, N-((4,6-Dimethyl-2-oxo-1,2-dihydropyridin-3-yl)methyl)-2-methyl-9-(4-(morpholinomethyl)phenyl)-2,3,4,5-tetrahydrobenzo[b]oxepine-7-carboxamide]: the pIC50 is below 6.00.

Consider `Cc1cc(C)c(CNC(=O)c2cc3c(c(-c4ccc(N5CCNCC5)nc4)c2)OC(C)CCC3)c(=O)[nH]1` (stereo not shown) [Example 51, N-((4,6-Dimethyl-2-oxo-1,2-dihydropyridin-3-yl)methyl)-2-methyl-9-(6-(piperazin-1-yl)pyridin-3-yl)-2,3,4,5-tetrahydrobenzo[b]oxepine-7-carboxamide], for which the pIC50 is below 6.00.

For `COc1ccc(-c2cc(C(=O)NCc3c(C)cc(C)[nH]c3=O)cc3c2OC(C)CCC3)cn1` (stereo not shown) [Example 52, N-((4,6-Dimethyl-2-oxo-1,2-dihydropyridin-3-yl)methyl)-9-(6-methoxypyridin-3-yl)-2-methyl-2,3,4,5-tetrahydrobenzo[b]oxepine-7-carboxamide], the pIC50 is below 6.00.

For `Cc1cc(C)c(CNC(=O)c2cc(Br)c3c(c2)CCC(C)CO3)c(=O)[nH]1` (stereo not shown) [Example 53, 9-Bromo-N-((4,6-dimethyl-2-oxo-1,2-dihydropyridin-3-yl)methyl)-3-methyl-2,3,4,5-tetrahydrobenzo[b]oxepine-7-carboxamide], the pIC50 was below 6.00.

As to `COc1ccc(-c2cc(C(=O)NCc3c(C)cc(C)[nH]c3=O)cc3c2OCC(C)CC3)cn1` (stereo not shown) [Example 54, N-((4,6-dimethyl-2-oxo-1,2-dihydropyridin-3-yl)methyl)-9-(6-methoxypyridin-3-yl)-3-methyl-2,3,4,5-tetrahydrobenzo[b]oxepine-7-carboxamide], the pIC50 is below 6.00.

On to `Cc1cc(C)c(CNC(=O)c2cc3c(c(-c4ccc(N5CCNCC5)nc4)c2)OCC(C)CC3)c(=O)[nH]1` (stereo not shown) [Example 55, N-((4,6-Dimethyl-2-oxo-1,2-dihydropyridin-3-yl)methyl)-3-methyl-9-(6-(piperazin-1-yl)pyridin-3-yl)-2,3,4,5-tetrahydrobenzo[b]oxepine-7-carboxamide], for which the pIC50 was below 6.00.

In the case of `C=CC1(C)Cc2cc(C(=O)NCc3c(C)cc(C)[nH]c3=O)cc(-c3ccc(OC)nc3)c2O1` (stereo not shown) [Example 56, N-((4,6-Dimethyl-2-oxo-1,2-dihydropyridin-3-yl)methyl)-7-(6-methoxypyridin-3-yl)-2-methyl-2-vinyl-2,3-dihydrobenzofuran-5-carboxamide], the pIC50 is below 6.00.

As to `C=CC1(C)Cc2cc(C(=O)NCc3c(C)cc(C)[nH]c3=O)cc(Br)c2O1` (stereo not shown) [Example 57, 7-Bromo-N-((4,6-dimethyl-2-oxo-1,2-dihydropyridin-3-yl)methyl)-2-methyl-2-vinyl-2,3-dihydrobenzofuran-5-carboxamide], the negative logarithm of the IC50 (pIC50) was below 6.00.

As for `C=CC1(C)Cc2cc(C(=O)NCc3c(C)cc(C)[nH]c3=O)cc(-c3ccc(CN4CCOCC4)cc3)c2O1` (stereo not shown) [Example 58, N-((4,6-Dimethyl-2-oxo-1,2-dihydropyridin-3-yl)methyl)-2-methyl-7-(4-(morpholinomethyl)phenyl)-2-vinyl-2,3-dihydrobenzofuran-5-carboxamide], the pIC50 was below 6.00.

Consider `C=CC1(C)Cc2cc(C(=O)NCc3c(C)cc(C)[nH]c3=O)cc(-c3ccc(N4CCNCC4)nc3)c2O1` (stereo not shown) [Example 59, N-((4,6-Dimethyl-2-oxo-1,2-dihydropyridin-3-yl)methyl)-2-methyl-7-(6-(piperazin-1-yl)pyridin-3-yl)-2-vinyl-2,3-dihydrobenzofuran-5-carboxamide], for which the pIC50 is above 6.30.

Regarding `C=CC1(C)Cc2cc(C(=O)NCc3c(C)cc(C)[nH]c3=O)cc(-c3cnc(N4CCN(C(=O)OC(C)(C)C)CC4)nc3)c2O1` (stereo not shown) [Example 60, t-Butyl 4-(5-(5-(((4,6-dimethyl-2-oxo-1,2-dihydropyridin-3-yl)methyl)carbamoyl)-2-methyl-2-vinyl-2,3-dihydrobenzofuran-7-yl)pyrimidin-2-yl)piperazine-1-carboxylate], the pIC50 is below 6.00.

As for `CCC1(C)Cc2cc(C(=O)NCc3c(C)cc(C)[nH]c3=O)cc(-c3ccc(OC)nc3)c2O1` (stereo not shown) [Example 61, N-((4,6-Dimethyl-2-oxo-1,2-dihydropyridin-3-yl)methyl)-2-ethyl-7-(6-methoxypyridin-3-yl)-2-methyl-2,3-dihydrobenzofuran-5-carboxamide], the pIC50 was below 6.00.

For the compound `CCC1(C)Cc2cc(C(=O)NCc3c(C)cc(C)[nH]c3=O)cc(-c3ccc(N4CCNCC4)nc3)c2O1` (stereo not shown) [Example 62, N-((4,6-Dimethyl-2-oxo-1,2-dihydropyridin-3-yl)methyl)-2-ethyl-2-methyl-7-(6-(piperazin-1-yl)pyridin-3-yl)-2,3-dihydrobenzofuran-5-carboxamide], the negative-log IC50 (pIC50) is above 6.30.

Turning to `CCC1(C)Cc2cc(C(=O)NCc3c(C)cc(C)[nH]c3=O)cc(-c3ccc(C)cc3)c2O1` (stereo not shown) [Example 63, N-((4,6-Dimethyl-2-oxo-1,2-dihydropyridin-3-yl)methyl)-2-ethyl-2-methyl-7-(p-tolyl)-2,3-dihydrobenzofuran-5-carboxamide], the pIC50 was below 6.00.

Take `Cc1cc(C)c(CNC(=O)c2cc(Br)c3c(c2)CC2(CCCC2)O3)c(=O)[nH]1` [Example 70, 7-Bromo-N-((4,6-dimethyl-2-oxo-1,2-dihydropyridin-3-yl)methyl)-3H-spiro[benzofuran-2,1′-cyclopentane]-5-carboxamide]: the pIC50 was below 6.00.

As to `COc1ccc(-c2cc(C(=O)NCc3c(C)cc(C)[nH]c3=O)cc3c2OC2(CCCC2)C3)cn1` [Example 71, N-((4,6-Dimethyl-2-oxo-1,2-dihydropyridin-3-yl)methyl)-7-(6-methoxypyridin-3-yl)-3H-spiro[benzofuran-2,1′-cyclopentane]-5-carboxamide], the pIC50 is below 6.00.

With `Cc1cc(C)c(CNC(=O)c2cc3c(c(-c4ccc(N5CCNCC5)nc4)c2)OC2(CCCC2)C3)c(=O)[nH]1` [Example 72, N-((4,6-Dimethyl-2-oxo-1,2-dihydropyridin-3-yl)methyl)-7-(6-(piperazin-1-yl)pyridin-3-yl)-3H-spiro[benzofuran-2,1′-cyclopentane]-5-carboxamide], the pIC50 is above 6.30.

Consider `Cc1cc(C)c(CNC(=O)c2cc3c(c(-c4cnc(N5CCN(C(=O)OC(C)(C)C)CC5)nc4)c2)OC2(CCCC2)C3)c(=O)[nH]1` [Example 73, tert-Butyl 4-(5-(5-(((4,6-dimethyl-2-oxo-1,2-dihydropyridin-3-yl)methyl)carbamoyl)-3H-spiro[benzofuran-2,1′-cyclopentan]-7-yl)pyrimidin-2-yl)piperazine-1-carboxylate], for which the pIC50 is below 6.00.

Turning to `Cc1cc(C)c(CNC(=O)c2cc3c(c(-c4ccc(CN5CCCCC5)cc4)c2)OC2(CCCC2)C3)c(=O)[nH]1` [Example 74, N-((4,6-Dimethyl-2-oxo-1,2-dihydropyridin-3-yl)methyl)-7-(4-(piperidin-1-ylmethyl)phenyl)-3H-spiro[benzofuran-2,1′-cyclopentane]-5-carboxamide], the negative logarithm of the IC50 (pIC50) is below 6.00.

Regarding `Cc1cc(C)c(CNC(=O)c2cc(Br)c3c(c2)C2(CCCC2)CO3)c(=O)[nH]1` [Example 75, 7-Bromo-N-((4,6-dimethyl-2-oxo-1,2-dihydropyridin-3-yl)methyl)-2H-spiro[benzofuran-3,1′-cyclopentane]-5-carboxamide], the pIC50 was below 6.00.

With `COc1ccc(-c2cc(C(=O)NCc3c(C)cc(C)[nH]c3=O)cc3c2OCC32CCCC2)cn1` [Example 76, N-((4,6-Dimethyl-2-oxo-1,2-dihydropyridin-3-yl)methyl)-7-(6-methoxypyridin-3-yl)-2H-spiro[benzofuran-3,1′-cyclopentane]-5-carboxamide], the pIC50 is below 6.00.

As for `Cc1cc(C)c(CNC(=O)c2cc(-c3ccc(N4CCNCC4)nc3)c3c(c2)C2(CCCC2)CO3)c(=O)[nH]1` [Example 77, N-((4,6-Dimethyl-2-oxo-1,2-dihydropyridin-3-yl)methyl)-7-(6-(piperazin-1-yl)pyridin-3-yl)-2H-spiro[benzofuran-3,1′-cyclopentane]-5-carboxamide], the pIC50 was below 6.00.

Take `Cc1cc(C)c(CNC(=O)c2cc(-c3ccc(CN4CCCCC4)cc3)c3c(c2)C2(CCCC2)CO3)c(=O)[nH]1` [Example 78, N-((4,6-Dimethyl-2-oxo-1,2-dihydropyridin-3-yl)methyl)-7-(4-(piperidin-1-ylmethyl)phenyl)-2H-spiro[benzofuran-3,1′-cyclopentane]-5-carboxamide]: the pIC50 is below 6.00.

With `Cc1cc(C)c(CNC(=O)c2cc(Br)c3c(c2)CC(C(C)C)O3)c(=O)[nH]1` (stereo not shown) [Example 79, 7-Bromo-N-((4,6-dimethyl-2-oxo-1,2-dihydropyridin-3-yl)methyl)-2-isopropyl-2,3-dihydrobenzofuran-5-carboxamide], the pIC50 was below 6.00.
